Experimental data reported in patent US12065471B2, “B*44 restricted peptides for use in immunotherapy against cancers and related methods” (Immatics Biotechnologies GmbH, priority 2018, dated 2024).

Columns and labels:
CD8+ T cells = experiment: In vitro immunogenicity: T-cell priming with aAPCs loaded with peptide/MHC and anti-CD28, pMHC multimer readout; type: cell-based, human; conditions: Table 10b, pMHC multimer readout after T-cell priming
Procedure: After three cycles of stimulation, the detection of peptide-reactive cells was performed by 2D multimer staining with B*44/SEQ ID NO: 469 (FIG. 3A), B*44/SEQ ID NO: 512 (FIG. 3B), B*44/SEQ ID NO: 9 (FIG. 3C), B*44/SEQ ID NO: 11 (D), B*44/SEQ ID NO: 17 (E), B*44/SEQ ID NO: 35 (F) or B*44/SEQ ID NO: 41 (FIG. 3G). Right panels (FIGS. 3A through 3G) show control staining of cells stimulated with irrelevant B*44/peptide complexes. Viable singlet cells were gated for CD8+ lymphocytes. Boolean gates helped excluding false-positive events detected with multimers specific for different peptides.
In order to obtain information regarding the immunogenicity of the TUMAPs of the present invention, the inventors performed investigations using an in vitro T-cell priming assay based on repeated stimulations of CD8+ T cells with artificial antigen presenting cells (aAPCs) loaded with peptide/MHC complexes and anti-CD28 antibody.
In order to perform in vitro stimulations by artificial antigen presenting cells loaded with peptide-MHC complex (pMHC) and anti-CD28 antibody, the inventors first isolated CD8+ T cells from fresh HLA-A*02 leukapheresis products via positive selection using CD8 microbeads (Miltenyi Biotec, Bergisch-Gladbach, Germany) of healthy donors obtained from the University clinics Mannheim, Germany, after informed consent.
PBMCs and isolated CD8+ lymphocytes were incubated in T-cell medium (TCM) until use consisting of RPMI-Glutamax (Invitrogen, Karlsruhe, Germany) supplemented with 10% heat inactivated human AB serum (PAN-Biotech, Aidenbach, Germany), 100 U/ml Penicillin/100 μg/ml Streptomycin (Cambrex, Cologne, Germany), 1 mM sodium pyruvate (CC Pro, Oberdorda, Germany), 20 μg/ml Gentamycin (Cambrex). 2.5 ng/ml IL-7 (PromoCell, Heidelberg, Germany) and 10 U/ml IL-2 (Novartis Pharma, Nümberg, Germany) were also added to the TCM at this step.
Generation of pMHC/anti-CD28 coated beads, T-cell stimulations and readout was performed in a highly defined in vitro system using four different pMHC molecules per stimulation condition and 8 different pMHC molecules per readout condition.
The purified co-stimulatory mouse IgG2a anti human CD28 Ab 9.3 (Jung et al., 1987) was chemically biotinylated using Sulfo-N-hydroxysuccinimidobiotin as recommended by the manufacturer (Perbio, Bonn, Germany). Beads used were 5.6 μm diameter streptavidin coated polystyrene particles (Bangs Laboratories, Illinois, USA).
800.000 beads/200 μl were coated in 96-well plates in the presence of 4×12.5 ng different biotin-pMHC, washed and 600 ng biotin anti-CD28 were added subsequently in a volume of 200 μl. Stimulations were initiated in 96-well plates by co-incubating 1×10^6 CD8+ T cells with 2×10^5 washed coated beads in 200 μl TCM supplemented with 5 ng/ml IL-12 (PromoCell) for 3 days at 37° C. Half of the medium was then exchanged by fresh TCM supplemented with 80 U/ml IL-2 and incubating was continued for 4 days at 37° C. This stimulation cycle was performed for a total of three times. For the pMHC multimer readout using 8 different pMHC molecules per condition, a two-dimensional combinatorial coding approach was used as previously described (Andersen et al., 2012) with minor modifications encompassing coupling to 5 different fluorochromes. Finally, multimeric analyses were performed by staining the cells with Live/dead near IR dye (Invitrogen, Karlsruhe, Germany), CD8-FITC antibody clone SK1 (BD, Heidelberg, Germany) and fluorescent pMHC multimers. For analysis, a BD LSRII SORP cytometer equipped with appropriate lasers and filters was used. Peptide specific cells were calculated as percentage of total CD8+ cells. Evaluation of multimeric analysis was done using the FlowJo software (Tree Star, Oregon, USA). In vitro priming of specific multimer+CD8+ lymphocytes was detected by comparing to negative control stimulations.

HLA-B*44:05 = HLA-B*44:05 (Homo sapiens, UniProt P01889, A223V/A65T/A93T/A95T/D201E/D98Y/E176V/E187L/E204Q/E69K/G107R/H137Y/K202T/L105A/L119I/N104T/N87E/Q56L/Q94N/R106L/R155S/R180D/S101N/S121R/S35A/S48T/T118I/V36M/W191S/Y91S); experiment: MHC binding assay (UV-ligand exchange, β2m ELISA, peptide exchange yield); conditions: binding to HLA-B*44:05
Procedure, shortened: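 Binding is read as exchange yield, i.e. stabilized complex remaining after UV cleavage of a photolabile ligand in the presence of the candidate peptide. Streptavidin-captured monomers (100-fold dilution) are probed with HRP-anti-β2m, 1h at 37° C, TMB, A450. Standard curve: HLA-A*02:01/MLA-001 monomers at 15-500 ng/ml.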

Substance	Wells positive [%] (CD8+ T cells)	Peptide exchange (MHC class I binding score, peptide exchange yield) (HLA-B*44:05)
61 (AEYSVHKI; listed as Homo sapiens) [compound 61]	+ (<20% = +)	+++ (>50 = +++)
56 (ALEEGGGYIF; listed as Homo sapiens) [compound 56]	+ (<20% = +)	+ (>10% = +)
420 (MEVDPIGHVY; listed as Homo sapiens) [compound 420]	+ (<20% = +)	+++ (>50 = +++)
62 (AEYSVHKITSTF; listed as Homo sapiens) [compound 62]	+ (<20% = +)	++++ (>75% = ++++)
422 (EEAQWVRKYF; listed as Homo sapiens) [compound 422]	++++ (>=70% = ++++)	+++ (>50 = +++)
60 (EEAVRSVAF; listed as Homo sapiens) [compound 60]	++ (20%-49% = ++)	+++ (>50 = +++)
66 (AEVTLNNTI; listed as Homo sapiens) [compound 66]	+ (<20% = +)	+++ (>50 = +++)
57 (SEATHIITI; listed as Homo sapiens) [compound 57]	++++ (>=70% = ++++)	+++ (>50 = +++)
83 (TEGGTQKTF; listed as Homo sapiens) [compound 83]	++++ (>=70% = ++++)	+++ (>50 = +++)
40 (REVDPDDSYVF; listed as Homo sapiens) [compound 40]	+ (<20% = +)	+++ (>50 = +++)
36 (LEQASRIWSW; listed as Homo sapiens) [compound 36]	++++ (>=70% = ++++)	++++ (>75% = ++++)
20 (LEALLSDLF; listed as Homo sapiens) [compound 20]	++ (20%-49% = ++)	+++ (>50 = +++)
17 (SEIYQPRGF; listed as Homo sapiens) [compound 17]	++++ (>=70% = ++++)	+++ (>50 = +++)
41 (EENTGKTYF; listed as Homo sapiens) [compound 41]	++ (20%-49% = ++)	+++ (>50 = +++)
72 (AEVGDIIKVHF; listed as Homo sapiens) [compound 72]	++ (20%-49% = ++)	+++ (>50 = +++)
31 (MESAKETRY; listed as Homo sapiens) [compound 31]	+ (<20% = +)	+++ (>50 = +++)
78 (TEFSNHINL; listed as Homo sapiens) [compound 78]	++ (20%-49% = ++)	+++ (>50 = +++)
18 (QEAPRPASSL; listed as Homo sapiens) [compound 18]	+ (<20% = +)	+++ (>50 = +++)
51 (VEMTGKHQL; listed as Homo sapiens) [compound 51]	++ (20%-49% = ++)	++ (>20% = ++)
13 (VEAQDRETW; listed as Homo sapiens) [compound 13]	++ (20%-49% = ++)	++ (>20% = ++)
11 (EENIVAIGI; listed as Homo sapiens) [compound 11]	+++ (50%-69% = +++)	+++ (>50 = +++)
59 (AEIEADRSYQ; listed as Homo sapiens) [compound 59]	+ (<20% = +)	++ (>20% = ++)
42 (SEENTGKTYF; listed as Homo sapiens) [compound 42]	++ (20%-49% = ++)	+++ (>50 = +++)
24 (EELALRIGL; listed as Homo sapiens) [compound 24]	++++ (>=70% = ++++)	+++ (>50 = +++)
30 (EEFCFSVRF; listed as Homo sapiens) [compound 30]	+ (<20% = +)	+++ (>50 = +++)
39 (AEAMGKFKQCF; listed as Homo sapiens) [compound 39]	+ (<20% = +)	+++ (>50 = +++)
4 (AEALGAAKKL; listed as Homo sapiens) [compound 4]	+ (<20% = +)	++ (>20% = ++)
